# Entries after “also recorded” stand apart in the source; their conditions may differ. Where two headings read alike, the source gives them in different places.
# Assays:
# [1] = Intrinsic dissolution experiments; type: physicochemical; conditions: for intrinsic dissolution rate, comparison in words: pH 6.8 buffer and water; for time to plateau / complete dissolution of tablet: pH 6.8 buffer (neutral media)
# Procedure: Intrinsic dissolution experiments were performed on the free acid, the meglumine salt, and the potassium salt. The measurements were carried out in pH 6.8 (0.05 M) phosphate buffer and water.
# The press used for tablet preparation for intrinsic dissolution rate measurements was a mini-IDR compression system (pION/Heath Scientific). Approximately 11 mg of material was pressed in the cylindrical hole of a passivated stainless steel die, to a uniform, flat surface, with an exposed area of 0.072 cm^2. The pressure applied was approximately 50 bar for 3-5 min. The sample die was inserted in a cylindrical Teflon rotating disk carrier containing an embedded magnetic stirring bar at its base. The die/stirrer assembly was placed in a flat bottomed glass vial, ready for dissolution analysis.
# The dissolution rate was measured in 20 ml of solvent (medium) and the path length of the UV meter was 2 mm. Applied stirring speed during measurement was 100 rpm. Measurements were performed at 20° C.
# [2] = In vivo pharmacokinetic study in Beagle dogs; conditions: male Beagle dogs; for AUC(0-t): read-out: AUC0-24h; for time-course of mean plasma concentration in comparison with API: oral capsule, FIG. 10
# Procedure: In vivo pharmacokinetic study was carried out in Beagle dogs.
# Male Beagle dogs were given single oral dose of the test articles by gelatin capsule formulation at a dose of 5 mg/kg. The actual weight of the test articles in the gelatin capsule to be administered to each animal was calculated based on the body weight measured just before the administration.
# Following dosing, blood was collected from the external jugular vein of animals at 0, 0.25, 0.5, 1, 2, 4, 6, 8, 12, 24, 48, 72, 96, 120, 144, 168, […], 288, and 360 hour after administration. Approximately 1 mL of blood will be collected into tubes containing heparin-Na.
# On the day of administration, food was given to the animals after 6-hour blood sampling.
# The drug concentrations in dog plasma were determined with the validated bioanalytical assay procedures. PK parameters were determined with non-compartmental analysis.
# [3] = Quantitative Solubility Assessment; type: physicochemical; conditions: pH 6.8 phosphate buffer (0.05 M) and water, thermodynamic from solid; neutral to basic environment
# Procedure: Quantitative Solubility Assessment were performed on the free acid, the meglumine salt, and the potassium salt. The measurements were carried out in pH 6.8 phosphate buffer (0.05M) and water.
# A standard 1.8 ml screw cap vial was charged with the material, each solvent (medium) and a magnetic stirring bar. The vials were subsequently closed and equilibrated at the ambient temperature for 24 h while stirring.
# The liquid part was retrieved with a syringe and filtrated (0.5 micron filter); the isolated mother liquors were diluted to two dilutions selected according to the calibration curve. Quantities of the API in the diluted solutions were determined via HPLC analysis (DAD). The calibration curve was obtained from two independently prepared stock solutions of the API in 50% water/50% acetonitrile.
# [4] = Solid-state stability at 40° C. and 75% relative humidity; type: physicochemical; conditions: 75% RH, 1 to 4 weeks
# Procedure: The solid-state stabilities were assessed as follows: HPLC vials, containing approximately 5 mg of material, were placed in the climate chamber at 40° C. and 75% relative humidity. The samples were analyzed by XRPD and HPLC (both purity and chiral) at time points of 1, 2, 3 and 4 weeks. For each week a separate vial was prepared.
# [5] = Variable humidity XRPD (VH-XRPD); type: physicochemical; conditions: 60 to 80% RH, 80 to 10% RH, 10 to 50% RH
# Procedure: (§1) For variable humidity and temperature experiment the ANSYCO HT chamber was used. The material was placed on a fixed sample holder that was mounted inside the chamber. The humidity was applied locally and varied from 10 to 80% (dew point). The temperature variation rate was 10° C./min.
# Variable humidity XRPD (VH-XRPD) measurements of the meglumine salt were performed under the humidity of 60 to 80% RH (1st sorption), 80 to 10% RH (desorption) and 10 to 50% (2nd sorption).
# [6] = DVS analysis (moisture sorption); type: physicochemical
# Procedure: Moisture sorption isotherms of small samples were obtained using a DVS-1 system from Surface Measurement Systems (London, UK) with an accuracy of 0.1 μg. The relative humidity cycled between 45 and 95% RH (sorption), 95 to 0% RH (desorption) and 0 to 45% (sorption) at a constant temperature of 25° C. with a hold time of 60 minutes per step (10% relative humidity step). At the end of the DVS experiment the sample was measured by XRPD.
# The XRPD pattern of the sample after DVS measurement was not changed.
# [7] = Variable temperature XRPD (VT-XRPD); type: physicochemical; conditions: 25° C. to 160° C. and back to 25° C.
# Procedure: as §1
# Variable temperature XRPD (VT-XRPD) measurements of the meglumine salt were performed under the temperature of 25° C. to 160° C. (heating) and thereafter decreased to 25° C. (cooling).
# [8] = Slurry experiments (physical stability in solvents); type: physicochemical; conditions: ethanol, ethyl acetate, n-heptane; 25° C.; 2 weeks
# Procedure: The slurry experiments of the meglumine salt were performed; the materials (15-30 mg) were weighed into 1.8 ml vials, charged with a stirring bar and the solvent (ethanol, ethyl acetate and n-heptane) and the slurries were placed at 25° C. under stirring. After two weeks, the slurries were subject to centrifugation and the liquid was removed with a pipette. The solids were sampled “wet” for XRPD. Subsequently the remaining solids dried under 200 mbar at room temperature for 5 days and all solids were analyzed as “dry” by XRPD.
# [9] = pH 6.8 (0.05 M) phosphate buffer, 20° C., 100 rpm
# [10] = dog, plasma, single oral dose 5 mg/kg, gelatin capsule
# [11] = dog, plasma, single oral dose 5 mg/kg, gelatin capsule, read-out: Cmax
# [12] = single oral dose 5 mg/kg, gelatin capsule
molecule,measurement,setting,value
"CC(C)(C)c1cc2c(cc1Cl)C=C(C(=O)O)[C@@H](C(F)(F)F)O2 [Compound A, (S)-6-chloro-7-(1,1-dimethylethyl)-2-trifluoromethyl-2H-1-benzopyran-3-carboxylic acid]",concentration after one hour,[1]; [9],27000 ng/mL
same,"intrinsic dissolution rate, comparison in words",[1],very limited dissolution
same,concentration after one hour,"[1]; water, 20° C., 100 rpm",about 1 μg/ml
same,AUC(0-t),[2]; [10],287 µg·h/mL
same,Cmax,[2]; [11],19700 ng/mL
"CC(C)(C)c1cc2c(cc1Cl)C=C(C(=O)[O-])[C@@H](C(F)(F)F)O2.[K+] [potassium salt, (S)-6-chloro-7-(1,1-dimethylethyl)-2-trifluoromethyl-2H-1-benzopyran-3-carboxylic acid potassium salt]",solubility at 24 h,[3],> 120 mg/mL
same,chemical purity after solid-state stability test,[4],≥ 99.9%
same,enantiomeric purity after solid-state stability test,[4],≥ 99.9%
same,plateau concentration (dissolution of complete tablet),[1]; [9],370 µg/mL
same,time to plateau / complete dissolution of tablet,[1]; 20° C.,≤ 15 min
same,"intrinsic dissolution rate, comparison in words",[1]; potassium salt,much better than the free acid; also recorded: dissolved the fastest in all cases
same,time to complete dissolution of tablet,"[1]; water, 20° C.",≤ 5 min
same,final concentration (complete tablet dissolved),"[1]; water, 20° C., 100 rpm",400 µg/mL
same,AUC(0-t),[2]; [10],436 µg·h/mL
same,Cmax,[2]; [11],28200 ng/mL
same,time-course of mean plasma concentration in comparison with API,[2],rapidly increased
"(S)-6-chloro-7-(1,1-dimethylethyl)-2-trifluoromethyl-2H-1-benzopyran-3-carboxylic acid meglumine salt",crystal form through sorption-desorption-sorption cycle (VH-XRPD),[5],remained unchanged
same,"physical and chemical stability (XRPD, HPLC)",[4],remained physically and chemically stable
same,maximum water uptake,"[6]; DVS, at 95% RH, 25° C.",2.0%
same,XRPD pattern of the sample after DVS measurement,[6]; after DVS cycle,not changed
same,plateau concentration (dissolution of complete tablet),[1]; [9],about 250 μg/ml
same,time to plateau / complete dissolution of tablet,[1]; 20° C.,45 min
same,"intrinsic dissolution rate, comparison in words",[1],much better than the free acid
same,concentration reached in the first 9 min,"[1]; water, 20° C., 100 rpm",about 210 μg/ml
same,final concentration (complete tablet dissolved),"[1]; water, 20° C., 100 rpm",250 µg/mL
same,time-course of mean plasma concentration in comparison with API,[2],rapidly increased
same,AUC0-24h,[2]; [12],"381,000 ng · hr/mL"
same,Cmax,[2]; [12],"28,200 ng/mL"
same,crystal form through heating-cooling cycle (VT-XRPD),[7],remained unchanged
same,physical stability of wet and dry solids in slurry (XRPD),[8],physically stable

# Source: patent US9447066B2, “Salts and crystal forms” (AskAt Inc., priority 2012, dated 2016)
